This note sets out measurements from ChEMBL document CHEMBL5291721, “A preclinical secondary pharmacology resource illuminates target-adverse drug reaction associations of marketed drugs” (Nat Commun, 2023).

Some targets named below: D(1A) dopamine receptor (Homo sapiens, UniProt P21728); D(3) dopamine receptor (Homo sapiens, UniProt P35462); Histamine H1 receptor (Homo sapiens, UniProt P35367).
Assay [1] has as its target T1, Mu-type opioid receptor (Homo sapiens, UniProt P35372).
The target of assay [2] is T2, Alpha-1A adrenergic receptor (Homo sapiens, UniProt P35348).
T2 sequence (P35348 whole entry): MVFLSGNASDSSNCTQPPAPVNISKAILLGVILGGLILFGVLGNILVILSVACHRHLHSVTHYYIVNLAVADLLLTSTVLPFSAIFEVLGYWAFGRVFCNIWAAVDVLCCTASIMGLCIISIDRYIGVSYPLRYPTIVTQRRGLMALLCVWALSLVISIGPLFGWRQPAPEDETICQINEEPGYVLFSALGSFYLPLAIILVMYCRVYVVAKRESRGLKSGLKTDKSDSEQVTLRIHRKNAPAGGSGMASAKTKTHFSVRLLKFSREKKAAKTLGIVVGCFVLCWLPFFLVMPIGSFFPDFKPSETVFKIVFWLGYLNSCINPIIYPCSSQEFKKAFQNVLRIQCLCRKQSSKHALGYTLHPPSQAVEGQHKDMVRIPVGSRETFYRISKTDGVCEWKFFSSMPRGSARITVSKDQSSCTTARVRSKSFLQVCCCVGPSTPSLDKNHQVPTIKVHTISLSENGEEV
The class given is functional, cell-based.

The target of assay [3] is T3, Amine oxidase [flavin-containing] A (Homo sapiens, UniProt P21397).
T3 sequence (P21397 whole entry): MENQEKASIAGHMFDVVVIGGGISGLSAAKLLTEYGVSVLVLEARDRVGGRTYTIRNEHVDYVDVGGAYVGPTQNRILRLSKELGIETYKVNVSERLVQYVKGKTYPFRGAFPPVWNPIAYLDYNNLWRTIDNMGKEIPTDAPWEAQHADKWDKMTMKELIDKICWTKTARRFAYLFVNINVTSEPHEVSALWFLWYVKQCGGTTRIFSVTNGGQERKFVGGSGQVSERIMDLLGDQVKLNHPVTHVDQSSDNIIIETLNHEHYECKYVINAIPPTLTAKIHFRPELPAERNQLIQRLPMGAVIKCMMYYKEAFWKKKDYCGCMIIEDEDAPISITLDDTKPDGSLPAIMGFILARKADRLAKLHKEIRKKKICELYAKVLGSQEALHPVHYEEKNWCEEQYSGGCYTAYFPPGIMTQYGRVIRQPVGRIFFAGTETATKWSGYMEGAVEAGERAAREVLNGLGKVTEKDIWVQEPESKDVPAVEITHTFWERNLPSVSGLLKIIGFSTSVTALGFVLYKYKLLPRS
The format is functional.

Assay [4] concerns the target 5-hydroxytryptamine receptor 2B (Homo sapiens, UniProt P41595). The format is functional, cell-based.
Assay [5] concerns the target Sodium-dependent noradrenaline transporter (Homo sapiens, UniProt P23975).
Assay [6] has as its target T4, Alpha-2A adrenergic receptor (Homo sapiens, UniProt P08913).
T4 sequence (P08913 whole entry): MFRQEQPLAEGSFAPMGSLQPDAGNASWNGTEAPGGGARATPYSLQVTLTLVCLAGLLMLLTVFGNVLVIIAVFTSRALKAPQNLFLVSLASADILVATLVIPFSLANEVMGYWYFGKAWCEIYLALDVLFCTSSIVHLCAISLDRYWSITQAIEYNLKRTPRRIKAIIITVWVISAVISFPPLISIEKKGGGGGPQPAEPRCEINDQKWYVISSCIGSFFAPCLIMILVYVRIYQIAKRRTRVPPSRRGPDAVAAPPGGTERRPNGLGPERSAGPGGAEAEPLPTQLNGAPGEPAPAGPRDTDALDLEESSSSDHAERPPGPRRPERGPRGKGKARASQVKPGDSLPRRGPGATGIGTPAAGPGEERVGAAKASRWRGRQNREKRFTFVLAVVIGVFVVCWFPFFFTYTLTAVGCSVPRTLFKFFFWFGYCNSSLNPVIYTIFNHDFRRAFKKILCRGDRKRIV

Assay [7] concerns the target Gamma-aminobutyric acid receptor subunit alpha-1 (Rattus norvegicus, UniProt P62813).
For assay [8], the target named is T5, Histamine H3 receptor (Homo sapiens, UniProt Q9Y5N1).
T5 sequence (Q9Y5N1 whole entry): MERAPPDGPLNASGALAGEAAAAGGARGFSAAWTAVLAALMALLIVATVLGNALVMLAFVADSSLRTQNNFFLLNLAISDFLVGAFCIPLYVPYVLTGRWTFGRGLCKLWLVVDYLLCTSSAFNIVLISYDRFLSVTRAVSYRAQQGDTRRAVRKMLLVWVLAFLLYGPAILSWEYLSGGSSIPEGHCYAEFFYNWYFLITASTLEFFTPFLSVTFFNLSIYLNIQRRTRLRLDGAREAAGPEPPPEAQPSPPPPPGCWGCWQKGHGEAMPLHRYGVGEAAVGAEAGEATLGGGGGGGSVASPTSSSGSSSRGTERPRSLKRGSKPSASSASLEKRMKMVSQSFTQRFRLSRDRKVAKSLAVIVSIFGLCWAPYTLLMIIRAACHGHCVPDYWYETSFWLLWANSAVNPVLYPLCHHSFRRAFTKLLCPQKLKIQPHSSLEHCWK
For a further assay, the target named is Acetylcholinesterase (Homo sapiens, UniProt P22303). The class given is functional.
Assay [9] deals with T6, Muscarinic acetylcholine receptor M2 (Homo sapiens, UniProt P08172).
T6 sequence (P08172 whole entry): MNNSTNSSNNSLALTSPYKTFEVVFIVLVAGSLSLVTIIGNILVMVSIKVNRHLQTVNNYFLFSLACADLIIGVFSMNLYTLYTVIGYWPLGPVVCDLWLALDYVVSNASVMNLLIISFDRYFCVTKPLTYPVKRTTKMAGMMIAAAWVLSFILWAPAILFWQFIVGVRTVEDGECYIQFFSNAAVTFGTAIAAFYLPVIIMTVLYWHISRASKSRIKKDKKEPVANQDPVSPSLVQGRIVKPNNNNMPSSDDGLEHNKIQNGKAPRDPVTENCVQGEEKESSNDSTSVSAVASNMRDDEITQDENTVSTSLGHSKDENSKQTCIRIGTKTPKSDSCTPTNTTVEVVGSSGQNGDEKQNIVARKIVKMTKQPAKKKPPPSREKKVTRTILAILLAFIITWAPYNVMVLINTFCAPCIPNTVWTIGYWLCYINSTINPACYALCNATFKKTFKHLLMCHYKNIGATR

Assay [10] has as its target Sodium-dependent dopamine transporter (Homo sapiens, UniProt Q01959).
Assay [11] addresses T7, 5-hydroxytryptamine receptor 1A (Homo sapiens, UniProt P08908).
T7 sequence (P08908 whole entry): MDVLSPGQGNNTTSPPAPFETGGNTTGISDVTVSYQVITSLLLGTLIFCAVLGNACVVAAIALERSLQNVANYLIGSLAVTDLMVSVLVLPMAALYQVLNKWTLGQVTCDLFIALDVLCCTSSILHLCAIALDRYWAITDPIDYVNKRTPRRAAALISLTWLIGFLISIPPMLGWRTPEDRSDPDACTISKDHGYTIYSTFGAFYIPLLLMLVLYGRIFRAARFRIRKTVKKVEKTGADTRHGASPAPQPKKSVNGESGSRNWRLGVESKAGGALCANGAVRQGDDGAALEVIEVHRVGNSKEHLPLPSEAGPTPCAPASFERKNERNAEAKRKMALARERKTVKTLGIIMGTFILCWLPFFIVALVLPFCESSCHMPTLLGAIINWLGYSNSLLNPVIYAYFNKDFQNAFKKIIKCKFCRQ

The target of assay [12] is T3, Amine oxidase [flavin-containing] A. The format is functional. The source holds these as a separate data set.
Assay [13] addresses T4, Alpha-2A adrenergic receptor. The class given is functional, cell-based.
Assay [14] deals with T8, Androgen receptor (Rattus norvegicus, UniProt P15207).
T8 sequence (P15207 whole entry): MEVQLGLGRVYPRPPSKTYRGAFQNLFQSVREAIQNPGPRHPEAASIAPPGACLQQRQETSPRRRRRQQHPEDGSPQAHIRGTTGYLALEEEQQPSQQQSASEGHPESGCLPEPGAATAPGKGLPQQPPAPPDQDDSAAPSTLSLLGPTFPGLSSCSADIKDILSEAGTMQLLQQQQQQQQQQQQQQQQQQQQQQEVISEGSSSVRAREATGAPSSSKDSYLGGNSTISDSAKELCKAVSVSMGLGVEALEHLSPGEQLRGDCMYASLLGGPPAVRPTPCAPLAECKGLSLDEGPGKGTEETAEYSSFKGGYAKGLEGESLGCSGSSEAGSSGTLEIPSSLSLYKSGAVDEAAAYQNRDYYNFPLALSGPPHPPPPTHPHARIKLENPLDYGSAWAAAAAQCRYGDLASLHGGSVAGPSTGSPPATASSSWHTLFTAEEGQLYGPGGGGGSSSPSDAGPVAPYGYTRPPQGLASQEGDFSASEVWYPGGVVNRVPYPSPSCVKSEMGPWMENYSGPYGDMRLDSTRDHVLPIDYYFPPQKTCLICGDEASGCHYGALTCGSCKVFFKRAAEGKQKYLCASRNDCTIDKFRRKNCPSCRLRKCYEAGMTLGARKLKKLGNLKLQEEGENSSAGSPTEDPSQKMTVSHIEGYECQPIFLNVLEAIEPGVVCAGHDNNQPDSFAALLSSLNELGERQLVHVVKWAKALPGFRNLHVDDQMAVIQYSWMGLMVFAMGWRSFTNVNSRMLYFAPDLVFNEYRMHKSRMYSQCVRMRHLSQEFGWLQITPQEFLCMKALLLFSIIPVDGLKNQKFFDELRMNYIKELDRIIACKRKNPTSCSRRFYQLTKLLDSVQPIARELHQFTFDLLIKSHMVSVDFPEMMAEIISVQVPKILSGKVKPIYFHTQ
The class given is functional.

The target in assay [15] is T9, Alpha-2C adrenergic receptor (Homo sapiens, UniProt P18825).
T9 sequence (P18825 whole entry): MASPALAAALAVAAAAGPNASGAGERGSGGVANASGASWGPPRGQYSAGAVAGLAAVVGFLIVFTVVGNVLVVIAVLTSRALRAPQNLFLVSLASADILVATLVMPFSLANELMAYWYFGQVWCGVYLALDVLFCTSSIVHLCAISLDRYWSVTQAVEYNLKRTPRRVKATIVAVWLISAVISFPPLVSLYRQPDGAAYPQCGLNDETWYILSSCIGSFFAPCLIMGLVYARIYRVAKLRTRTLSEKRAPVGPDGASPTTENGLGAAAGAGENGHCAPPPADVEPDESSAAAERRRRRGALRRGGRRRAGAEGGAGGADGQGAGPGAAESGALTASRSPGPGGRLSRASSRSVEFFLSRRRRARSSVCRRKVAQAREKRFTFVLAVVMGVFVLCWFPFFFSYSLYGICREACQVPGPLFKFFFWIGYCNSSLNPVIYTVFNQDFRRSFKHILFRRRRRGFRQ
The class given is functional.

In assay [16] the target is Beta-2 adrenergic receptor (Homo sapiens, UniProt P07550).
Chain of Beta-2 adrenergic receptor (P07550 whole entry): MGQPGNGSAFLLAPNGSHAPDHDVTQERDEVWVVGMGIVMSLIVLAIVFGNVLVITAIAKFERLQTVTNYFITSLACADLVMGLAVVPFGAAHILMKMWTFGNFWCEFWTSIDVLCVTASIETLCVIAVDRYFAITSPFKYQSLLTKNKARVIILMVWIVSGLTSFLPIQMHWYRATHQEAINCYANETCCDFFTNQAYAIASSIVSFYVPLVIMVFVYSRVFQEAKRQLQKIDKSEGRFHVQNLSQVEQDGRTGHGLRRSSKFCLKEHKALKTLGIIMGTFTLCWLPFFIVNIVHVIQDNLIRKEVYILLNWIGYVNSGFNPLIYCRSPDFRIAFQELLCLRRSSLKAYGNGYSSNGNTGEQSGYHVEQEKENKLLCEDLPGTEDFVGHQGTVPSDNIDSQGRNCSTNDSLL
The target of assay [17] is T8, Androgen receptor. The class given is functional. This is another data set of the same source.
Assay [18] concerns the target T10, Cannabinoid receptor 1 (Homo sapiens, UniProt P21554). The format is functional, cell-based.
The target in assay [19] is T5, Histamine H3 receptor. This is another data set of the same source.
Assay [20] addresses Voltage-dependent L-type calcium channel subunit alpha-1C (Rattus norvegicus, UniProt P22002). The class given is functional.
The target of assay [21] is T2, Alpha-1A adrenergic receptor. The class given is functional, cell-based. The source holds these as a separate data set.
The target of assay [22] is Beta-1 adrenergic receptor (Homo sapiens, UniProt P08588). The format is functional.
The next assay has as its target Histamine H2 receptor (Homo sapiens, UniProt P25021). The class given is functional, cell-based.
Assay [23] concerns the target T10, Cannabinoid receptor 1. The format is functional, cell-based. The source holds these as a separate data set.
For assay [24], the target named is T1, Mu-type opioid receptor. In words: biochemical. The format is functional.
Assay [25] concerns the target Glutamate receptor ionotropic, NMDA 1 (Rattus norvegicus, UniProt P35439).
A further assay deals with T11, D(4) dopamine receptor (Homo sapiens, UniProt P21917).
T11 sequence (P21917 whole entry): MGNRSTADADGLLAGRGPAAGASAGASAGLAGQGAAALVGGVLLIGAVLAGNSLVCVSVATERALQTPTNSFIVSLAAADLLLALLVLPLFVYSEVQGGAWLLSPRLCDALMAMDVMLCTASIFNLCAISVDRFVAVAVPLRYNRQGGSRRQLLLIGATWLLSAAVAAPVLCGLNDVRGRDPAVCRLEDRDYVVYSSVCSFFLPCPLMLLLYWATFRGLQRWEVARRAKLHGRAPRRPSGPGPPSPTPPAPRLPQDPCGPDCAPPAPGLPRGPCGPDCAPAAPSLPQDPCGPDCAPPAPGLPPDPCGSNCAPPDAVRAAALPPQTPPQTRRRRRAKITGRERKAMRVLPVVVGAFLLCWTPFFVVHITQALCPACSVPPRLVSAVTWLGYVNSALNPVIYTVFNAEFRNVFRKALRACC
Note: assay procedure not described here.

T1 sequence (P35372 whole entry): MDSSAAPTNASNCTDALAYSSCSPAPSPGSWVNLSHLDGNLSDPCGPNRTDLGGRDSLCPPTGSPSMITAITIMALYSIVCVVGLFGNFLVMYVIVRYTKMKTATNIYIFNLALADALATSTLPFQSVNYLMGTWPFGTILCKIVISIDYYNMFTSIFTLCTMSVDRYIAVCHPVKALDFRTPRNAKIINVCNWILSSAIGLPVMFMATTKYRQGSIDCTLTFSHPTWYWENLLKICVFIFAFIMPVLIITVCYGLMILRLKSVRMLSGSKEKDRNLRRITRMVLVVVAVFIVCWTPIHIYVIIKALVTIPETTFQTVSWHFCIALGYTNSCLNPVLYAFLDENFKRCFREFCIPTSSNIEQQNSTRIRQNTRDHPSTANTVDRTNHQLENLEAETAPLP
T10 sequence (P21554 whole entry): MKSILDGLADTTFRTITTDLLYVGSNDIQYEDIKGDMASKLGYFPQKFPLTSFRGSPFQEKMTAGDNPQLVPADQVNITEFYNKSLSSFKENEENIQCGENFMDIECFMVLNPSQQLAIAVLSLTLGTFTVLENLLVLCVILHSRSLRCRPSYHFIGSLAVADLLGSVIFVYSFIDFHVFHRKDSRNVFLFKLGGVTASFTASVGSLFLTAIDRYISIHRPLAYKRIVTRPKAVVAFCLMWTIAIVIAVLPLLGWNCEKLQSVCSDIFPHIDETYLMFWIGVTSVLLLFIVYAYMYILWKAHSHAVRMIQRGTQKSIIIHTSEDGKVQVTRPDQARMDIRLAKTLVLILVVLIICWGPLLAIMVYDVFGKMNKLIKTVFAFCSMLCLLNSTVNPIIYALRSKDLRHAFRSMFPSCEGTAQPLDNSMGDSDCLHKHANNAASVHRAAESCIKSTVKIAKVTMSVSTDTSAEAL
Chain of Histamine H2 receptor (P25021 whole entry): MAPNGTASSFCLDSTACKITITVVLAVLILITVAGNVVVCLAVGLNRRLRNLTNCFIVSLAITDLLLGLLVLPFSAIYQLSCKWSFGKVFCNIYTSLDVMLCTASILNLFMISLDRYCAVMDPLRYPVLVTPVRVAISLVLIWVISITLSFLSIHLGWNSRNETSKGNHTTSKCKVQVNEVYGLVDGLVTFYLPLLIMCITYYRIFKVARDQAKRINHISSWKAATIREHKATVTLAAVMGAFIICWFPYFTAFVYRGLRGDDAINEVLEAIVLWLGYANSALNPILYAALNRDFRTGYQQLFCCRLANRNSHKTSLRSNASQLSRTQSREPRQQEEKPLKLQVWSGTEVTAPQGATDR
Chain of 5-hydroxytryptamine receptor 2B (P41595 whole entry): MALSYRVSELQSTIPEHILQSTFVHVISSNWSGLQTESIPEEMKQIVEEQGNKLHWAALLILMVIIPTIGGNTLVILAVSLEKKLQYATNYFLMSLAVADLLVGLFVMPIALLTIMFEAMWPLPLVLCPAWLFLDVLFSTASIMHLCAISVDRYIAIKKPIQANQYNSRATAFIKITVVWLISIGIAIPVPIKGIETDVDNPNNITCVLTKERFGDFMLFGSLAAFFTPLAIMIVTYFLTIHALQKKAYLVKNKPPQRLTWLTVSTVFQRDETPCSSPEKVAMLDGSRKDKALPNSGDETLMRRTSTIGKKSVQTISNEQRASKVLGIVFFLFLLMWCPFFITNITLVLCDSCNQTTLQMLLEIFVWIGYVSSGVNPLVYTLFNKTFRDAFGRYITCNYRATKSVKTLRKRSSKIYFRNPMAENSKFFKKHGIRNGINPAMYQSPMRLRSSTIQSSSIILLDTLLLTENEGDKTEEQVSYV
Chain of Voltage-dependent L-type calcium channel subunit alpha-1C (P22002 whole entry): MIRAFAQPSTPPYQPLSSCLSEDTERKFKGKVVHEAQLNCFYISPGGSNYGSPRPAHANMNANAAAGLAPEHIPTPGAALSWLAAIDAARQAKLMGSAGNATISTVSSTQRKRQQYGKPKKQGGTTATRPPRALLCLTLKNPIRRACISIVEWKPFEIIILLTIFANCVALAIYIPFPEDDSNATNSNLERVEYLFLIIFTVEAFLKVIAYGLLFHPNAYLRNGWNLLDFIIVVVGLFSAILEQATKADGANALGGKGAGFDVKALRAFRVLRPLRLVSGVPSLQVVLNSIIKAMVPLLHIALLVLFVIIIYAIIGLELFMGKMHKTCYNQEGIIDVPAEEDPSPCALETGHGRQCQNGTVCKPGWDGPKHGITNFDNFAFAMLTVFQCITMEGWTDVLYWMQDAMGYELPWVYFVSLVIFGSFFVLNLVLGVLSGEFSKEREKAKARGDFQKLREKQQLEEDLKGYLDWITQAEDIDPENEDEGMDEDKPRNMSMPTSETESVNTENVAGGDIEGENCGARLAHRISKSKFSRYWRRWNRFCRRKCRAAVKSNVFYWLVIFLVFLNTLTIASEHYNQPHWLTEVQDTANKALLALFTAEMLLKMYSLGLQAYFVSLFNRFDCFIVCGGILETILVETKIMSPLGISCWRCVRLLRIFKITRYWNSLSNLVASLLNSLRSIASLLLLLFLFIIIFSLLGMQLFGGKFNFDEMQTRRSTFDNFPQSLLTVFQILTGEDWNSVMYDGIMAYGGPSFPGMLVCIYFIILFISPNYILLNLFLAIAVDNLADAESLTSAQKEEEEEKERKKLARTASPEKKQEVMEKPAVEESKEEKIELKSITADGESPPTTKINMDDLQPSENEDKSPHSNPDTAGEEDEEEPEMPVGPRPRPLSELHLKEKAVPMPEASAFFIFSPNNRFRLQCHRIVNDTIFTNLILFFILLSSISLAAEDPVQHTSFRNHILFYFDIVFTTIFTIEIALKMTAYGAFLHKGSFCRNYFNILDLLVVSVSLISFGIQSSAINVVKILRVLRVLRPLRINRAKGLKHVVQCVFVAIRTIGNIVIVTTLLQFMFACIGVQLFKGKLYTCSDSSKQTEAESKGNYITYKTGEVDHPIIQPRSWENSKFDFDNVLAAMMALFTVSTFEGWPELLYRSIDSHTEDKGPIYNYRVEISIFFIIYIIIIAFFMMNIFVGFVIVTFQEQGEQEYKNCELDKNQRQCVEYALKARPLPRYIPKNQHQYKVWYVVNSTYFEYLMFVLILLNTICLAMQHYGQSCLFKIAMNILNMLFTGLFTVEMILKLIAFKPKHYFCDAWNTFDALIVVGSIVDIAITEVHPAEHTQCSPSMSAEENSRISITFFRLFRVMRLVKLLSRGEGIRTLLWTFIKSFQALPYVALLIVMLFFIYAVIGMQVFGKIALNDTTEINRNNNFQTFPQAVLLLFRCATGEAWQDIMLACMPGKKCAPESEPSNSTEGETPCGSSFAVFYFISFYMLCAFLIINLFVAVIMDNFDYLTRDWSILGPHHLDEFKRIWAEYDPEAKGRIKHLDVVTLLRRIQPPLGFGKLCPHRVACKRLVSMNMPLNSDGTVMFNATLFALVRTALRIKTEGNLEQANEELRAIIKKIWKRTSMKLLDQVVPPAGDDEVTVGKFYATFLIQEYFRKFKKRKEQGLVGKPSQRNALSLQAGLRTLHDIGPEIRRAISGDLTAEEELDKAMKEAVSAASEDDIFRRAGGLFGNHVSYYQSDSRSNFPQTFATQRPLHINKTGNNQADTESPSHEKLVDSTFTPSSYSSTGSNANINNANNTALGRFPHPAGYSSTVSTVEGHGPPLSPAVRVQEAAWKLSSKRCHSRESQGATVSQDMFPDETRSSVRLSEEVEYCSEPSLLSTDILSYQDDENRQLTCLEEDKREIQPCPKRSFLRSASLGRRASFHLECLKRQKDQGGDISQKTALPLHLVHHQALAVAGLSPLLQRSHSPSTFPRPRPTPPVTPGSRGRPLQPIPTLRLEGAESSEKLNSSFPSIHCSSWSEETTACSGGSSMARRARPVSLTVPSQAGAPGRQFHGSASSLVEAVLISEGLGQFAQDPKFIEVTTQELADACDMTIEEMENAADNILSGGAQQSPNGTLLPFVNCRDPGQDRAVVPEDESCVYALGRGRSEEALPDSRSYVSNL

For `CC[C@@]1(O)C[C@H](O[C@H]2C[C@H](N(C)C)[C@H](O[C@H]3C[C@H](O)[C@H](O[C@H]4CCC(=O)[C@H](C)O4)[C@H](C)O3)[C@H](C)O2)c2c(cc3c(c2O)C(=O)c2c(O)cccc2C3=O)[C@H]1C(=O)OC` [ACLARUBICIN], the AC50 (on Mu-type opioid receptor [1]; in assay [2]; in assay [3]; in [4]; in assay [5]; in assay [6]) was > 30 µM each time. The AC50 (in [7]; on Histamine H3 receptor [8]; on Acetylcholinesterase; in assay [9]; in assay [10]; on D(1A) dopamine receptor) was > 30 µM throughout. Also, the AC50 (in assay [11]; on D(3) dopamine receptor) was > 30 µM in each case.
Turning to `CCC(=O)OCC(=O)[C@@]1(OC(=O)CC)[C@H](C)C[C@H]2[C@H]3[C@H]([C@@H](O)C[C@@]21C)[C@@]1(C)C=CC(=O)C=C1C[C@H]3Cl` [ALCLOMETASONE DIPROPIONATE], the concentration at half-maximal activity (AC50) in assay [12] is > 30 µM; in assay [13], > 30 µM; at Androgen receptor [14], > 30 µM; in [15] it was > 30 µM; in assay [16], > 30 µM; at Androgen receptor [17], 9.4 µM. Also, the AC50 (on Cannabinoid receptor 1 [18]; at Histamine H3 receptor [19]; in assay [20]; in assay [21]; in assay [22]; at Histamine H2 receptor) was > 30 µM in each case. Besides, the AC50 was 0.58 µM at Cannabinoid receptor 1 [23], > 30 µM on Histamine H1 receptor, > 30 µM at Mu-type opioid receptor [24] and > 30 µM in [25].
As for `O=c1[nH]c2ccccc2n1C1CCN(CCCC(c2ccc(F)cc2)c2ccc(F)cc2)CC1` [PIMOZIDE], the half-maximal activity concentration (AC50) at D(4) dopamine receptor came out at 0.0728 µM.
